{"source": "patent US11246854B2", "about": "“Ozonides for treating or preventing virus infections” (THE JOHNS HOPKINS UNIVERSITY, priority 2017, dated 2022)", "key": {"HCMV TB40 strain": {"tested_on": "HCMV TB40 strain", "assay": "Plaque reduction assay in HFFs", "assay_type": "cell-based, human cytomegalovirus", "settings": "Human betaherpesvirus 5, read-out: EC50 in plaque reduction assay", "experimental": "Six ozonizes have been tested for inhibition of HCMV replication and toxicity in human foreskin fibroblasts (Table 1, FIG. 1). The pp28 luciferase-recombinant Towne was used to measure HCMV replication, and an MTT assay—for cell viability. […] (FIG. 1).\nThe pp28-luciferase Towne CMV strain was constructed as previously described (31). The recombinant virus expresses luciferase under the control of UL99 (pp28) late promoter 48-72 h post infection (hpi). […] Luciferase activity highly correlates with plaque reduction assay. The Towne CMV (ATCC VR-977) and TB40 strains (ATCC VR-1578) were used for plaque reduction, DNA replication, and cell cycle assays.\nA plaque reduction assay was performed in HFFs. One day prior to infection, HFFs were seeded at 3×10^6 cells/24-well plate. The Towne CMV strain was diluted in DMEM to a desired titer which gave approximately 50 plaques/well and added to each well in quadruplicates. Plates were incubated for 90 minutes with shaking every 10 min; thereafter compounds were added and replenished every 3 days. After a 10-day incubation, cells were stained with crystal violet and plaques were counted at 40× magnification."}, "[1]": {"tested_on": "CDKs, pRB and E2F1 expression", "assay": "Immunoblot of CDKs, pRb and E2F1, non-infected HFFs", "assay_type": "cell-based, human", "experimental": "Cell lysates were quantified for total protein content using Pierce bicinchoninic acid (BCA) protein assay kit (Thermo-Fisher Scientific, Waltham, Mass.). Equivalent amounts of protein were mixed with an equal volume of sample buffer (125 mM Tris-HCl [pH 6.8], 4% SDS 20% glycerol, 5% β-mercaptoethanol) and boiled at 100° C. for 10 min. Denatured proteins were resolved in Tris-glycine polyacrylamide gels (10% to 12%) and transferred to polyvinylidene difluoride membranes (Bio-Rad Laboratories, Hercules, Calif.) by electroblotting. Membranes were incubated in blocking solution (5% nonfat dry milk/BSA and 0.1% Tween 20 in PBS [PBST]) for 1 h, washed three times with PBST, and incubated primary antibodies diluted in 5% milk or BSA (for pRb) at 4° C. overnight. The membranes were washed with PBST, followed by incubation with horseradish peroxidase (HRP)-conjugated secondary antibodies in 5% milk/BSA for 1 h at room temperature. After three washing steps with PBST, protein bands were visualized by chemiluminescence using SuperSignal West Pico reagent (Pierce Chemical, Rockford, Ill.). […]"}, "non-infected HFFs": {"tested_on": "non-infected HFFs", "assay": "Cell cycle progression by flow cytometry, non-infected HFFs", "assay_type": "cell-based, human", "settings": "non-infected cells, 30 μM, 24 h and 72 h", "experimental": "(§1) To identify the cell cycle stage affected by OZ418, non-infected HFFs were serum starved for 72 h and then released in DMEM with 0% FBS (control for G0 arrest), 10% FBS (control for cell cycle progression), or 10% FBS plus OZ418 (30 μM), AS (30 μM), or GCV (30 μM) for 24 h and 72 h, respectively. To determine the effects of OZ418 on cell cycle progression in infected HFFs, 1.0×10^6 cells were serum starved for 72 h, and then infected with HCMV Towne strain (MOI=1) followed by treatment with OZ418 (30 μM), AS (30 μM), or GCV (5 μM) for 24 h and 72 h, respectively. The cells were collected by treatment with trypsin and then washed with PBS. The collected cells were fixed in 5 ml of cold 70% ethanol overnight at 4° C. and resuspended in […] of staining buffer (50 μg/ml propidium iodide [Sigma-Aldrich] and 0.2 mg/ml RNase A in PBS) for 45 min at 37° C. in 5% CO2. The samples were analyzed on an LSR II flow cytometer (BD Biosciences, San Jose, Calif.), and at least 10,000 cells were counted for each sample. Data analysis was performed using FlowJo software (Tree Star, USA). The percentage of cells in G1/S/G2-M is shown in each condition."}, "HCMV-infected HFFs": {"tested_on": "HCMV-infected HFFs", "assay": "Cell cycle progression by flow cytometry, HCMV-infected HFFs", "assay_type": "cell-based, human", "settings": "HCMV-infected cells, 30 μM, 24 h and 72 h", "experimental": "as §1"}, "GCV-resistant CMV strain": {"tested_on": "GCV-resistant CMV strain", "assay": "Inhibition of GCV-resistant HCMV", "assay_type": "cell-based, human cytomegalovirus", "settings": "FIG. 3", "description": "FIG. 3A-3D illustrates activity of OZ418 against a GCV-resistant CMV strain. A. Dose response. B. Luciferase. C. HCMV proteins IE1/2, UL44, and pp65 detection. D. Plaque reduction assay.\nA GCV-resistant strain was inhibited by OZ418 (FIG. 3)."}, "pp28-luciferase HCMV": {"tested_on": "pp28-luciferase HCMV", "assay": "Add-on and removal experiments", "assay_type": "cell-based, human cytomegalovirus", "settings": "luciferase at 72 hpi", "experimental": "HFFs were infected with the pp28-luciferase HCMV as described above. At 0, 6, 12, 24, 36 and 48 hpi, the media were replaced by the media containing OZ418 or GCV. For time-of-removal studies, media containing the compounds were removed at 0, 6, 12, 24, 36 and 48 hpi, cells were then washed three times with PBS, and drug-free medium was added. The cells were incubated at 37° C., and luciferase assays were carried out at 72 hpi."}, "HCMV entry": {"tested_on": "HCMV entry", "assay": "HCMV entry assay", "assay_type": "cell-based", "settings": "FIG. 4A", "experimental": "To determine the time during HCMV replication that OZ418 was active an entry assay was performed (FIG. 4A)."}}, "note": "“Also recorded” adds a separate entry of the source.", "data": [{"compound": "O=C(O)COc1ccc([C@H]2CC[C@]3(CC2)OO[C@]2(O3)C3CC4CC(C3)CC2C4)cc1", "note": "[OZ418]", "values": [{"measurement": "EC50", "setting": "HCMV TB40 strain", "value": "8.53 ± 0.09", "unit": "µM"}, {"measurement": "Expression of CDKs, pRB and E2F1", "setting": "[1]", "value": "unchanged; also recorded: did not decrease the expression of pRb or any of the tested CDKs"}, {"measurement": "Cell cycle progression", "setting": "non-infected HFFs", "value": "did not influence cell cycle progression"}, {"measurement": "Cell cycle progression", "setting": "HCMV-infected HFFs", "value": "delayed cell cycle progression"}, {"measurement": "Inhibition of GCV-resistant strain", "setting": "GCV-resistant CMV strain", "value": "inhibited"}, {"measurement": "Timing of anti-HCMV activity", "setting": "pp28-luciferase HCMV", "value": "early-late inhibitor of HCMV"}, {"measurement": "Inhibition of HCMV entry", "setting": "HCMV entry", "value": "did not inhibit HCMV entry"}]}]}
